Reference: the supplement of paper PMC10011410
± gives the standard deviation of the averaged measurements.

Experiments:
[1] = system: U-2 OS; experiment: total intracellular glutathione (GSH + GSSG) relative to DMSO (% of control); higher = more glutathione; settings: 24 h
Experimental: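 Total intracellular glutathione (GSH + GSSG) in U-2 OS cells by GSH/GSSG-Glo after 24 h compound treatment at 5, 10 and 20 uM (some at 40 and 80 uM), as percent of DMSO control. Five technical replicate plates, averaged.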

[2] = system: U-2 OS; experiment: relative cell count vs DMSO (cell painting) (fraction of DMSO control); higher = more cells remaining (less cytotoxic); settings: 24 h
Method in brief: (§1)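 Cell painting used U-2 OS cells at about 1,500 per well in 384-well plates, treated by pin tool for 24 h at 37 °C, usually at six 2-fold concentrations from 20 μM to 625 nM. Cells were stained with MitoTracker, concanavalin A, phalloidin, wheat germ agglutinin, Hoechst and SYTO 14 and imaged on an Opera Phenix. Features were extracted with CellProfiler and normalized to DMSO cells on the same plate. The activity score is the Mahalanobis distance from DMSO wells; cell count is relative to DMSO wells. Values are means of four replicate plates.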

[3] = system: U-2 OS; experiment: cell painting activity score (Mahalanobis distance from DMSO wells); higher = stronger morphological phenotype; settings: 24 h
Method in brief: as §1

[4] = system: U-2 OS; experiment: cell viability (CellTiter-Glo) relative to DMSO (% of control); higher = more viable; settings: 24 h
Experimental: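 Cell viability of U-2 OS cells by CellTiter-Glo after 24 h compound treatment at 5, 10 and 20 uM (some at 40 and 80 uM), measured in parallel with the glutathione assay, as percent of DMSO control. Five technical replicate plates, averaged.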

[5] = system: U-2 OS; experiment: AUC of culture confluence over time (live-cell imaging) (AUC (confluence % x time)); higher = more confluent culture (less growth inhibition)
Method in brief: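 Confluence of U-2 OS cells in F-12K medium with 10% FBS was tracked by live-cell imaging. Cells were seeded at 750 per well in 384-well plates and treated 24 h later by pin tool, with most compounds at 20, 10 and 5 μM and 0.2% DMSO. Cells were kept at 37 °C and imaged every 4 h for up to 60 h on an Incucyte S3 with a 10x objective. The value is the area under the confluence-versus-time curve.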

[6] = system: U-2 OS; experiment: intracellular GSH:GSSG ratio (calculated); higher = more reduced glutathione pool; settings: 24 h
Experimental: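 Intracellular glutathione in U-2 OS cells after 24 h compound treatment at 5, 10 and 20 uM (some at 40 and 80 uM). Total glutathione and GSSG were measured with the GSH/GSSG-Glo kit, and the GSH:GSSG ratio was calculated. Mean of five technical replicate plates.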

| Compound | total intracellular glutathione ([1]; 5 µM) | total intracellular glutathione ([1]; 10 µM) | total intracellular glutathione ([1]; 20 µM) | relative cell count ([2]; 0.625 µM) | relative cell count ([2]; 1.25 µM) | relative cell count ([2]; 2.5 µM) | relative cell count ([2]; 5 µM) | relative cell count ([2]; 10 µM) | relative cell count ([2]; 20 µM) | cell painting activity score ([3]; 0.625 µM) | cell painting activity score ([3]; 1.25 µM) | cell painting activity score ([3]; 2.5 µM) | cell painting activity score ([3]; 5 µM) | cell painting activity score ([3]; 10 µM) | cell painting activity score ([3]; 20 µM) | cell viability ([4]; 5 µM) | cell viability ([4]; 10 µM) | cell viability ([4]; 20 µM) | AUC of culture confluence over time ([5]; 5 µM) | AUC of culture confluence over time ([5]; 10 µM) | AUC of culture confluence over time ([5]; 20 µM) | intracellular GSH:GSSG ratio ([6]; 5 µM) | intracellular GSH:GSSG ratio ([6]; 10 µM) | AUC of culture confluence over time ([5]; 0.625 µM) | AUC of culture confluence over time ([5]; 1.25 µM) | AUC of culture confluence over time ([5]; 2.5 µM) | intracellular GSH:GSSG ratio ([6]; 20 µM) | relative cell count ([2]; 0.15624 µM) | relative cell count ([2]; 0.3124 µM) | cell painting activity score ([3]; 0.15624 µM) | cell painting activity score ([3]; 0.3124 µM) |
| --- | --- | --- | --- | --- | --- | --- | --- | --- | --- | --- | --- | --- | --- | --- | --- | --- | --- | --- | --- | --- | --- | --- | --- | --- | --- | --- | --- | --- | --- | --- | --- |
| COc1ccc(N(C(=O)CCl)C(C(=O)NCCc2ccccc2)c2cccs2)cc1Cl (centres undefined) | 49.1 ± 4.8 | 23.5 ± 6.2 | 2.61 ± 0.21 | 0.916 | 0.7 | 0.657 | 0.209 | 0.198 | 0.29 | 9.81 | 11 | 11.4 | 14.4 | 32.8 | 32.2 | 64.5 ± 5.7 | 36.8 ± 12 | 8.23 ± 3.5 | 15.9 | 17.6 | 16.4 | 4.03 | 5.85 |  |  |  |  |  |  |  |  |
| COc1cc2c(c(OC)c1OC)-c1ccc(OC)c(=O)cc1[C@@H](NC(C)=O)CC2 | 59.7 ± 3.7 | 58.1 ± 4.3 | 60.6 ± 3.2 | 0.215 ± 0.03 | 0.215 ± 0.021 | 0.213 ± 0.02 | 0.209 ± 0.021 | 0.205 ± 0.017 | 0.197 ± 0.018 | 22.4 ± 2.2 | 22 ± 1.8 | 20.7 ± 1.9 | 20.3 ± 2.4 | 21.3 ± 1.8 | 21 ± 1.7 | 49.1 ± 4 | 52.8 ± 6.9 | 57.8 ± 6.9 | 20.1 | 19.7 | 22.8 ± 0.82 | 3 | 2.46 | 21.6 | 21.5 | 21 | 2.47 |  |  |  |  |
| O=S1(=O)C=C(Sc2nn(-c3ccccc3)c(=S)s2)c2ccccc21 | 65 ± 9.1 | 43.8 ± 9 | 29.2 ± 4.9 | 0.875 | 0.647 | 0.35 | 0.223 | 0.247 | 0.259 | 11.4 | 11.7 | 19.6 | 17.8 | 20.4 | 18.2 | 38.8 ± 8.9 | 30.5 ± 2.7 | 36.6 ± 8.1 | 17.7 | 15.9 | 16.3 | 11.7 | 7.07 |  |  |  | 2.96 |  |  |  |  |
| CC(C)[C@H](C(=O)Nc1ccc(C(=O)NO)cc1)c1ccccc1 | 40.8 ± 2.6 | 40.5 ± 3.5 | 39.6 ± 4.1 | 0.727 | 0.52 | 0.497 | 0.465 | 0.442 | 0.41 | 16.9 | 20.2 | 19.4 | 17.6 | 13.3 | 15.9 | 44.2 ± 4.6 | 44 ± 1.6 | 44 ± 1.6 | 18.7 | 20 | 18.2 | 6.7 | 7.56 |  |  |  |  |  |  |  |  |
| Cn1c(SC2=CS(=O)(=O)c3ccccc32)nnc1-c1ccc(O)cc1 | 113 ± 51 | 82.1 ± 41 | 48.7 ± 27 | 0.933 | 0.993 | 0.903 | 0.761 | 0.527 | 0.379 | 6.03 | 8.31 | 10.7 | 13.1 | 16.2 | 13.2 | 96.8 ± 4.4 | 66 ± 4.1 | 71.2 ± 4.6 | 22.8 | 21.2 | 22.3 | 10.2 | 4.41 |  |  |  | 2.8 |  |  |  |  |
| COC(=O)Nc1nc2ccc(C(=O)c3cccs3)cc2[nH]1 | 53.1 ± 6.4 | 50.2 ± 4.2 | 51.4 ± 6 | 0.272 ± 0.056 | 0.265 ± 0.032 | 0.243 ± 0.033 | 0.232 ± 0.034 | 0.222 ± 0.035 | 0.211 ± 0.036 | 19.6 ± 2.7 | 18.4 ± 2.2 | 21.5 ± 2.2 | 22.3 ± 1.8 | 22.7 ± 1.8 | 23.1 ± 1.4 | 54.8 ± 7 | 47.5 ± 5.7 | 52.3 ± 9.2 | 20.2 | 18.8 | 24.1 | 3.33 | 2.36 | 20.9 | 19.1 | 21.5 | 2.95 |  |  |  |  |
| O=S1(=O)CC(N2CCCC2)c2ccccc21 (centres undefined) | 97.6 ± 3.1 | 98.8 ± 6.1 | 102 ± 5.3 | 0.972 | 0.969 | 0.957 | 0.962 |  |  | 5.04 | 4.39 | 4.11 | 3.43 |  |  | 103 ± 3.5 | 103 ± 6.5 | 109 ± 6.8 | 49.4 |  |  | 30.8 | 37.7 |  |  |  | 28.5 | 0.962 | 0.979 | 4.13 | 3.66 |
| COc1ccc(N2C(=O)CC(Sc3nnc(-c4ccccc4)o3)C2=O)cc1 (centres undefined) | 97.4 ± 5.6 | 97.1 ± 17 | 20 ± 8 | 1.1 | 1.07 | 1.16 | 1.08 | 1.1 | 0.796 | 2.96 | 3.59 | 3.44 | 4.49 | 6.07 | 11.5 | 105 ± 6.2 | 91.8 ± 19 | 9.21 ± 6.6 | 24.5 | 11.3 | 11.9 | 26.4 | 14.5 |  |  |  | 4.1 |  |  |  |  |
